Experimental findings from ChEMBL document CHEMBL5120946, “Bivalent BET Bromodomain Inhibitors Confer Increased Potency and Selectivity for BRDT via Protein Conformational Plasticity” (J Med Chem, 2022) are described below.

Usually pKd stands for −log10 of the Kd, conventionally taken in molar units. In general, pIC50 refers to the negative decadic logarithm of the IC50, by convention in mol/L. One may read the half-life as how long it takes for the measured level to halve.

Data set [1] concerns the target T1, Bromodomain testis-specific protein (Homo sapiens, UniProt Q58F21). The experiment in a line: Binding affinity to N-terminal hexa-histidine tagged BRDT-T (2 to 416 residues) (unknown origin) expressed in Escherichia coli BL21(DE3) cells.
Data set [2] deals with T2, Bromodomain-containing protein 4 (Homo sapiens, UniProt O60885). The experiment in a line: Binding affinity to BRD4-T (unknown origin).
Data set [3] concerns the target T1, Bromodomain testis-specific protein. The experiment in a line: Inhibition of recombinant human BRDT-1 (21 to 137 residues) expressed in bacterial expression system by bromoscan assay.
The next data set concerns MM1.S. The experiment in a line: Growth inhibition of human MM1.S cells incubated for 72 hrs by CellTiter-Blue assay. It is filed as functional, cell-based. In general terms: Alamar Blue is a resazurin reagent that responds to reducing activity.
For data set [4], the target named is T1, Bromodomain testis-specific protein. The experiment in a line: Inhibition of recombinant human BRDT-2 (250 to 382 residues) expressed in bacterial expression system by bromoscan assay.
For data set [5], the target named is T2, Bromodomain-containing protein 4. The experiment in a line: Inhibition of recombinant human BRD4-2 (333 to 460 residues) expressed in bacterial expression system by bromoscan assay.
Data set [6] has the same target. The experiment in a line: Inhibition of recombinant human BRD4-1 (44 to 168 residues) expressed in bacterial expression system by bromoscan assay.
Data set [7] can be described thus: Metabolic stability in pooled mouse liver microsomes assessed as half life. It is filed as ADME, Microsome. The settings on record: for t1/2: microsomes; for half-life: pooled mouse liver microsomes. In general terms: Microsomes from liver hold many membrane-bound enzymes, among them those of drug oxidation.
The species named for another data set is Homo sapiens. The experiment in a line: Selectivity ratio of Kd for BRD4 (unknown origin) to Kd for BRDT (unknown origin).
The nature of data set [8]: Metabolic stability in pooled human liver microsomes assessed as half life. It is filed as ADME, Microsome. Conditions: for half-life: pooled human liver microsomes; for t1/2: microsomes.
Data set [9] concerns the target T2, Bromodomain-containing protein 4. The experiment in a line: Inhibition of BRD4 in human MM1.S cells assessed as reduction in c-MYC level after 6 hrs by Western blot analysis. It is filed as cell-based. (A western blot detects proteins with antibodies after separation by electrophoresis.)
Data set [10] can be described thus: Permeability in MDCK-MDR1 cells. In kind it is ADME, cell-based, Canis lupus familiaris. The settings on record: dog; for Papp: MDCK-MDR1, read-out: permeability.

pIC50, pKd: −log10 of the molar value.

With `Cc1cnc(Nc2ccc(C(=O)NC3CCN(C(=O)COCCOCCOCC(=O)N4CCC(NC(=O)c5ccc(Nc6ncc(C)c(Nc7ccc(Cl)c(NS(=O)(=O)C(C)(C)C)c7)n6)cc5F)CC4)CC3)c(F)c2)nc1Nc1ccc(Cl)c(NS(=O)(=O)C(C)(C)C)c1`, the pKd in data set [1] was 8.59; in data set [2] it was 8.32; in data set [3] it was 9.22; in data set [4], 8.08; in [5] it was 8.04; in data set [6] it was 7.55. The compound further gave a pIC50 with MM1.S of 7.23.

As for `Cc1cnc(Nc2ccc(C(=O)NC3CCNCC3)c(F)c2)nc1Nc1cc(NS(=O)(=O)C(C)(C)C)cc(C(=O)NCCOCCOCCOCCC(=O)N2CCC(NC(=O)c3ccc(Nc4ncc(C)c(Nc5ccc(Cl)c(NS(=O)(=O)C(C)(C)C)c5)n4)cc3F)CC2)c1`, the pKd was 8.89 in data set [1]; 8.77 in data set [2]; 9.80 in data set [3]; 8.51 in [4]; 8.49 in data set [5]; 8.22 in data set [6]. Moreover, the t1/2 in data set [7] is reported as 55 min. Also, the pIC50 in the data set with MM1.S is 5.96. Besides, in the data set listed under Homo sapiens, the Selectivity ratio was 12. In addition, the half-life in [8] was 2.2 min.

For `Cc1cnc(Nc2ccc(C(=O)NC3CCN(C(=O)CCOCCOCCOCCOCCOCCC(=O)N4CCC(NC(=O)c5ccc(Nc6ncc(C)c(Nc7ccc(Cl)c(NS(=O)(=O)C(C)(C)C)c7)n6)cc5F)CC4)CC3)c(F)c2)nc1Nc1ccc(Cl)c(NS(=O)(=O)C(C)(C)C)c1`, the pKd was 9.10 in [1]; 8.80 in [2]; 9.22 in data set [3]; 8.66 in data set [4]; 8.82 in [5]; 8.34 in data set [6]. In addition, the t1/2 was 30 min in data set [7] and 10 min in [8]. The pIC50 in the data set on MM1.S was 7.52.

With `Cc1cnc(Nc2ccc(C(=O)NC3CCN(C)CC3)c(F)c2)nc1Nc1ccc(Cl)c(NS(=O)(=O)C(C)(C)C)c1`, the negative logarithm of the Kd (pKd) in data set [1] was 7.74; in [2], 8.17; in data set [3], 8.02; in data set [4] it was 7.60; in [5], 7.70. Also, the pIC50 in the data set on MM1.S was 7.21.

Take `Cn1cc(-c2cccc(N3CCCC3=O)c2)c2ccccc2c1=O`: the pKd in data set [3] was 6.06; in data set [6], 6.47. In addition, the pIC50 is less than 6.00 in [9] and 7.24 in the data set on MM1.S.

For `Cc1cnc(Nc2ccc(C(=O)NC3CCN(C(=O)COCCOCC(=O)N4CCC(NC(=O)c5ccc(Nc6ncc(C)c(Nc7ccc(Cl)c(NS(=O)(=O)C(C)(C)C)c7)n6)cc5F)CC4)CC3)c(F)c2)nc1Nc1ccc(Cl)c(NS(=O)(=O)C(C)(C)C)c1`, the negative logarithm of the Kd (pKd) in [1] is 9.23; in data set [2], 8.44; in data set [3], 9.08; in [4] it was 8.46; in data set [5], 8.51; in [6], 8.40. Besides, the pIC50 with MM1.S was 7.36.

Regarding `Cc1cnc(Nc2ccc(C(=O)NC3CCN(C(=O)CCOCCOCCOCCOCCC(=O)N4CCC(NC(=O)c5ccc(Nc6ncc(C)c(Nc7ccc(Cl)c(NS(=O)(=O)C(C)(C)C)c7)n6)cc5F)CC4)CC3)c(F)c2)nc1Nc1ccc(Cl)c(NS(=O)(=O)C(C)(C)C)c1`, the negative logarithm of the Kd (pKd) in data set [1] is 8.81; in data set [2], 8.55; in [3], 9.04; in data set [4], 8.77; in data set [5] it was 8.52; in data set [6], 8.19. The results for the t1/2 in [7] and in data set [8] were 4.1 min and 5.6 min, respectively. The compound further had a negative-log IC50 (pIC50) with MM1.S of 7.47.

Regarding `CCS(=O)(=O)Nc1ccc(Oc2ccc(Cl)cc2)c(-c2cn(C)c(=O)c3ccccc23)c1`, the negative-log Kd (pKd) in data set [1] is 8.22; in [2], 8.64; in data set [3], 8.30; in data set [4] it was 7.92; in [5] it was 8.43; in data set [6], 8.44. For the same compound, the t1/2 in [7] was 74 min; in [8], 299 min. In addition, in data set [10] (mdck-mdr1), the permeability is reported as 2.7 10^-6 cm/s. The pIC50 in the data set on MM1.S is 8.07.

Consider `CCS(=O)(=O)Nc1cccc(-c2cn(C)c(=O)c3ccccc23)c1`, for which the negative logarithm of the Kd (pKd) in [3] was 7.11. The half-life in data set [7] and in [8] was less than 2.3 min throughout. Moreover, the Papp in data set [10] came out at 0.13 ×10⁻⁶ cm/s.

As for `CCS(=O)(=O)Nc1ccc(OCCOCCOCCOCCOc2ccc(NS(=O)(=O)CC)cc2-c2cn(C)c(=O)c3ccccc23)c(-c2cn(C)c(=O)c3ccccc23)c1`, the pKd is 10.24 in [1]; 9.54 in data set [2]; 10.05 in data set [3]; 8.26 in [4]; 9.49 in data set [5]; 10.02 in [6]. In addition, the half-life in data set [7] is 11 min; in [8], 315 min. Also, in data set [10], the Papp came to 15 ×10⁻⁶ cm/s.
